“Also recorded” adds a separate entry of the source. Counter-ions that a name gives are not always drawn.
Legend:
[1] = system: Yohimbine-induced noradrenergic mediated hyperarousal in Wistar rats; experiment: Elevated plus maze, yohimbine-induced noradrenergic mediated hyperarousal (Example 2); type: in vivo
Description: Background: Yohimbine is an alpha 2-adrenergic receptor antagonist reported to trigger panic attacks in healthy volunteers and to exacerbate symptoms in patients with panic disorder (Charney et al., 1992 Acta Psychiatr Scand., Vol. 86 (4): 273-282). Peripheral administration of Yohimbine causes noradrenergic mediated hyperarousal in rats as assessed by the EPM paradigm.
Rationale: The drug yohimbine is a natural product used to test a specific pathway, noradrenergic-mediated hyper-arousal. It is well established that yohimbine is an alpha2-adrenergic receptor antagonist and activates the locus coeruleus (LC) and increases noradrenergic signaling (the opposite of alpha2-adrenergic agonists like dexmedetomidine and clonidine). Increased LC activity and noradrenergic signaling makes animals anxious and agitated which can be measured by using the elevated plus maze. In the elevated plus maze, rodents were in the closed arms and explored the open arms depending on their anxiety and agitation (rats and mice normally explore their environments extensively when calm). […] This behavior is correlated to increased level of anxiety caused by noradrenergic mediated hyperarousal.
Animal groups: Male: Wistar rats were used in this study and were randomly divided to different experimental groups (12 animals per group).
Study drugs: Four test drugs with different mechanisms of action linked to agitation were chosen to find drugs that are effective in reducing yohimbine-induced agitation: (1) Fluvoxamine (selective serotonin reuptake inhibitor) (2) Dextromethorphan (modulator of NMDA signals) (3) Diazepam (modulator of gamma-aminobutyric acid (GABA) as a positive control) and (4) Latrepirdine (complex pharmacology).
The test drugs were procured from Sigma or Tocris. dextromethorphan from Sigma Aldrich, Cat No. D9684; latrepirdine from Sigma Aldrich, Cat No. D6196 or Tocris Cat No. 3201 diazepam and fluvoxamine Sigma Aldrich, Cat No. F2802 or Tocris, Cat No. 1033. All these test drugs were formulated in sufficient quantity in 0.9% saline except for fluvoxamine, which was formulated in 30% ethanol in 0.9% saline.
Apparatus: Elevated Plus Maze (EPM) was used (FIG. 1). The maze consisted of two closed arms and two open arms forming a cross, with a square center platform. All visible surfaces were made of black acrylic. Each arm of the maze was placed on a support column above the floor. Antistatic black vinyl curtains used for surrounding the EPM to make an enclosure.
Study design and dosing: Yohimbine was administered by intraperitoneal injection (i.p.) at a dose of 2.5 mg/kg (30 minutes prior to study) to induce agitation and the effects were assessed 30 minutes after yohimbine injection by measuring the number of open arm entries and exploration time in the EPM. The test drugs fluvoxamine, dextromethorphan and latrepirdine dihydrochloride hydrate were administered through intramuscular route and, diazepam through intraperitoneal route into the hindleg thigh muscle of rats (60 minutes prior to study; 30 minutes prior to yohimbine administration). Diazepam was injected 30 minutes intraperitonially prior to the assay i.e. along with yohimbine administration. The study design is illustrated in FIG. 2 and table 5.
After the test drug administration, the rat was placed on the platform opposite a closed arm. The number of entries and the time spent in each arm were recorded during a 5 min period. The animal was considered as entered in arm when it placed its four paws into the arm.
Statistical analysis: Analysis of variance (ANOVA) was performed on the result data. Fisher's PLSD was used for pairwise comparisons and p value≤0.05 was considered significant.

[2] = system: mouse behavior (SmartCube signature); experiment: SmartCube system behavioral classification (Example 6); type: in vivo, Male C57/B16 mice; conditions: IP
Description: Dexmedetomidine and latrepirdine have anti-psychotic effects, when tested in the SmartCube® system (Psychogenics, Inc., Paramus, NJ; See also U.S. Pat. No. 7,580,798 incorporated herein by reference in its entirety). This system uses features derived from mouse behavioral data to first, classify mice on compound versus vehicle. This measure indicates how well the system can differentiate between a mouse on compound versus a mouse on vehicle. Secondly, by comparing the features to a proprietary reference database of behavioral feature sets that are linked to classes of marketed drugs known to treat neuro-psychiatric symptoms SmartCube® assigns a signature to the behavior. Thus, the system can be used as a model to identify both the activity and the psychiatric effect of a compound by comparing the effects of the compounds against drugs with known validated effects.
By comparing the responses of animals to known drugs, the test drug can be categorized according to its function; for example, hallucinogen, anxiogenic, analgesic, cognitive enhancer, psychostimulant, mood stabilizer, high dose anti-psychotic, anti-psychotic, sedative/hypnotic, anxiolytic, high dose antidepressant, antidepressant.
Once all features are extracted from the raw data through an automated pipeline, proprietary bioinformatics algorithms are used to decorrelate groups of features and find the combination of values that best separate different groups of interest. For each compound, at each dose, they system provides a probability that the drug is active and breaks down such putative activity into the different classes of interest.
SmartCube reference data used herein include anti-psychotics and anti-depressants tested at several dose ranges. “Anti-psychotic” versus “high dose anti-psychotic” as indicated in the legend, reflects the notion that anti-psychotics reference data is dose dependent. Anti-psychotics, when administered at higher doses, can engage additional receptor systems, and thus affect mouse behavior differently. The same applies for different doses of anti-depressants.
Animals: Male C57/B16 mice (N=12 per group) from Taconic Laboratories were used. Upon receipt, mice were group-housed in OPTI mouse ventilated cages with 4 mice per cage. Mice were acclimated to the colony room for at least one week prior to test and subsequently tested at approximately 8-9 weeks of age. All animals were examined, handled, and weighed prior to initiation of the study to assure adequate health and suitability and to minimize non-specific stress associated with manipulation.
All compounds tested were formulated in NP3 (vehicle solution): 5% Pharmasolve; 30% P3 (1:1:1 PEG200: PEG400: propylene glycol); 65% saline; pH is 5.1-6.
Test groups were: • Vehicle: NP3 • Dexmedetomidine at 0.005 and 0.010 mg/kg • Latrepirdine at 1 and 10 mg/kg • Dexmedetomidine and latrepirdine combinations (in mg/kg): 0.005/1.0; 0.005/10; 0.010/1.0; 0.010/10
Test compounds were injected intraperitoneally (IP) for 15 min before animals were placed in SmartCube for assessment.
Antipsychotic: SmartCube classifies the mouse behavior with test compound as similar to treatment with marketed anti-psychotics at therapeutically relevant doses.
High Dose Antipsychotic: SmartCube classifies the mouse behavior on test compound as similar to treatment with marketed anti-psychotics at doses that are considered as high therapeutically. High doses of anti-psychotics often cause sedation.
The results for the class analyses are presented as standardized bar charts with percentages that sum to 100 for each dose. The percentage indicates the probability the classifier can differentiate between the vehicle group and test group. The pattern indicates what class signature was assigned.

[3] = 3 mg/kg and 10 mg/kg, i.m., 60 min prior, yohimbine 2.5 mg/kg i.p.

Row | SMILES | open arm entries and time spent, comparison with diazepam ([1]; 3 mg/kg and 10 mg/kg, i.m. versus diazepam 1 mg/kg, i.p.) | number of open arm entries [1, 3] | time spent in the open arms (exploration time) [1, 3] | yohimbine-induced noradrenergic mediated hyperarousal ([1]; latrepirdine 3 mg/kg and 10 mg/kg, i.m., yohimbine 2.5 mg/kg i.p.) | SmartCube signature ([2]; 1 and 10 mg/kg) | SmartCube total activity ([2]; latrepirdine 1.0 mg/kg) | SmartCube total activity ([2]; latrepirdine 10 mg/kg)
1 | Cc1ccc2c(c1)c1c(n2CCc2ccc(C)nc2)CCN(C)C1 [latrepirdine dihydrochloride hydrate] | comparable to diazepam | significantly increased number of open arm entries; also recorded: significantly increased the number of entries into the open arms | increased exploration time; also recorded: significantly increased | reversed yohimbine-induced noradrenergic mediated hyperarousal | – | – | –
2 | Cc1ccc2c(c1)c1c(n2CCc2ccc(C)nc2)CCN(C)C1 [latrepirdine, 2,8-dimethyl-5-[2-(6-methylpyridin-3-yl)ethyl]-3,4-dihydro-1H-pyrido[4,3-b]indole] | – | – | – | – | antipsychotic signature | 20% | 80%
